The assay has as its target T1, EpCAM protein (Homo sapiens, UniProt P16422).
T1 construct: purchased Sino Biological Inc
T1 sequence (P16422 24-314): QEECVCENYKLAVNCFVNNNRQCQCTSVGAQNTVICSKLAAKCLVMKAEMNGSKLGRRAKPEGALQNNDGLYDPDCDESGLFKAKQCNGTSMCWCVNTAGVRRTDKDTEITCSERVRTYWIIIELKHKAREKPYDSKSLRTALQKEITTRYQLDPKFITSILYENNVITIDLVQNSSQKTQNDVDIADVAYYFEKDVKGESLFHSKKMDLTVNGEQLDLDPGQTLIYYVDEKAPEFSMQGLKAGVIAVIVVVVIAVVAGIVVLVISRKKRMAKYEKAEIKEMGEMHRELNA
The assay is described as follows: surface plasmon resonance imaging (SPRi) test of binding ability of chip-spotted peptoid to EpCAM protein. The following applies: EpCAM 5.68-91.2 nM in PBS, binding 300 s, dissociation 300 s, fitted with BIAevalution 4.1, read-out: equilibrium dissociation constant KD.

`NCCCCNC(=O)CN(CCc1ccc(-c2ccccc2)cc1)C(=O)CN(CCC(=O)O)C(=O)CNCCc1ccccc1` [Formula II]: the Kd (as a rule, the free concentration of one partner at which half of the binding sites on the other are occupied at equilibrium, for simple one-to-one binding) was determined as 18.7 nM.

For the origin of these results see patent US12188937B2, “Peptoid compound and detection chip coupled with peptoid compound on the surface” (BEIJING BOE TECHNOLOGY DEVELOPMENT CO., LTD., priority 2019, dated 2025).
